From US8912188B2, “Substituted quinoxaline carboxylic acids for the inhibition of PASK” (BioEnergenix, LLC, priority 2011, dated 2014)

Legend:
PASK = molecular target: T1, PASK (UniProt #Q96RG2; human recombinant N-terminal GST tagged construct, residues 879-1323) (Homo sapiens, UniProt Q96RG2); experiment: PASK ATP Radiochemical Assay; format: biochemical; conditions: 33P-ATP, Myelin Basic Protein substrate, 120 min at room temperature, read-out: IC50 Kinase Domain
T1 construct: human recombinant N-terminal GST tagged construct, residues 879-1323; GST (N); host or cells: insect cells
Description: Biochemical Assay for hPASK Activity
PASK ATP Radiochemical Assay
Test compounds in DMSO are then added and the mixture, followed by delivery of ^33P-ATP (specific activity 0.01 μCi/μl final) to initiate the reaction. […] The entire reaction mixture is washed through onto a P81 Phosphocellulose paper and washed three times for 10 minutes in 75 mM phosphoric acid and once in methanol prior to drying and scintillation counting.

PASK (Invitrogen) = molecular target: T2, PASK (Invitrogen) (Homo sapiens, UniProt Q96RG2); experiment: PAS Kinase FRET Assay; format: biochemical; conditions: PAS kinase TR-FRET assay (665 nm/615 nm), 2 hours at 25° C.; read-out: IC50 Kinase Domain
T2 construct: IC50 Kinase Domain; purchased Invitrogen

[1] = In vivo pharmacokinetics in the Sprague Dawley rat
Description: Pharmacokinetics of a PASK Inhibitor
The test compounds were formulated in polyethylene glycol and beta cyclodextrin in water for administration at 1 mg/kg for Example 105, and at 3 mg/kg for Example 14, 15, and 18 for intravenous administration via the tail vein and 10 mg/kg for oral administration by gavage. Blood samples were collected at 0.083, 0.25, 0.5, 1, 2, 4, 6, 8, and 24 hours and the samples were analyzed for test compounds content using LC/MS/MS. The data was submitted to pharmacokinetic analysis using WinNonLin software and the observed and calculated pharmacokinetic parameters are shown in Table 3 for each compound.

[2] = intravenous via tail vein, 3 mg/kg (1 mg/kg for Example 105)

T2 sequence (Q96RG2 999-1251 limits assumed): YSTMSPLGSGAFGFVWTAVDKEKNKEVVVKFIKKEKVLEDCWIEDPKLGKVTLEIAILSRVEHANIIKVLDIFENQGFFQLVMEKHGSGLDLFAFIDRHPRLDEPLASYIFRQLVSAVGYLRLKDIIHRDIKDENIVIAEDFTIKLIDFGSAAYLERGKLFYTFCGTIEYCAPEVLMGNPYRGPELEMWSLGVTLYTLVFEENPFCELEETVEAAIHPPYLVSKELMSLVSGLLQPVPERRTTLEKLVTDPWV
T1 sequence (Q96RG2 879-1323, stated change not applied): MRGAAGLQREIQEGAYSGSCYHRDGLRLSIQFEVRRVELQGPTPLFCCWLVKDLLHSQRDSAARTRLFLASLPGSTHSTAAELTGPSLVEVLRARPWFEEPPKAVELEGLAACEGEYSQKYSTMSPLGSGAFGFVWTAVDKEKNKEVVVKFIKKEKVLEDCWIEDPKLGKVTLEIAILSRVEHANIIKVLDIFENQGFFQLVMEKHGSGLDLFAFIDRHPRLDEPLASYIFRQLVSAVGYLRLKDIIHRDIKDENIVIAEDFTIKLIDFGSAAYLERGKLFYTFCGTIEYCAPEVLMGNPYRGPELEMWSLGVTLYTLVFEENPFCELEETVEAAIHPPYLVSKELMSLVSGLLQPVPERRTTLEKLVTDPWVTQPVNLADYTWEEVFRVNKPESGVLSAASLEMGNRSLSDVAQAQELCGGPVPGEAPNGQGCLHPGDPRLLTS

IC50 (PASK): < 10 µM
IC50 (PASK (Invitrogen)): < 10 µM
bioavailability ([1]; blood, po, 10 mg/kg, summary of Table 3): > 74%
half-life ([1]; blood, summary of Table 3): > 7 h
t1/2 (half-life) ([1]; intravenous 3 mg/kg (1 mg/kg for Example 105), oral 10 mg/kg): 7.72 h
Cl (clearance) [1, 2]: 0.712 mL/min/kg
Vss (volume of distribution) [1, 2]: 0.407 L/kg
Tmax (time to maximum blood concentration after an oral dose) ([1]; oral gavage 10 mg/kg): 1 h
F (oral bioavailability) ([1]; oral gavage 10 mg/kg vs intravenous 3 mg/kg (1 mg/kg for Example 105)): 74.8%
volume of distribution ([1]; summary of Table 3): low
Compound: C[C@H]1COCCN1c1nc2cc(C(=O)O)ccc2nc1-c1ccc(F)cc1 [Example 105, (S)-2-(4-Fluorophenyl)-3-(3-methylmorpholino)quinoxaline-6-carboxylic acid]
